Assays:
NURR-1/RXRα = target: T1, NURR-1/RXRα (Homo sapiens, UniProt P19793); test: Transactivation test, NURR-1-Gal4/RXRα, luciferase reporter in Cos-7 cells; format: cell-based; conditions: for Emax: COS-7, induction level relative to reference XCT0135908 at 2×10^−5 M (=100%), read-out: hNurr1_RXRaFL Emax (%); for EC50: Cos-7 cells, NURR-1-Gal4/RXRα, luciferase reporter, read-out: hNurr1_RXRaFL EC50
T1 construct: expressed in transfected cells; host or cells: Cos-7 cells

NURR-1/RXRγ = target: T2, NURR-1/RXRγ (Homo sapiens, UniProt P48443); test: Transactivation test, NURR-1-Gal4/RXRγ, luciferase reporter in Cos-7 cells; format: cell-based; conditions: for Emax: COS-7, induction level relative to reference XCT0135908 at 2×10^−5 M (=100%), read-out: hNurr1_RXRgFL Emax (%); for EC50: Cos-7 cells, NURR-1-Gal4/RXRγ, luciferase reporter, read-out: hNurr1_RXRgFL EC50
T2 construct: expressed in transfected cells; host or cells: Cos-7 cells
T2 sequence (P48443 whole entry, the tested form may be a part): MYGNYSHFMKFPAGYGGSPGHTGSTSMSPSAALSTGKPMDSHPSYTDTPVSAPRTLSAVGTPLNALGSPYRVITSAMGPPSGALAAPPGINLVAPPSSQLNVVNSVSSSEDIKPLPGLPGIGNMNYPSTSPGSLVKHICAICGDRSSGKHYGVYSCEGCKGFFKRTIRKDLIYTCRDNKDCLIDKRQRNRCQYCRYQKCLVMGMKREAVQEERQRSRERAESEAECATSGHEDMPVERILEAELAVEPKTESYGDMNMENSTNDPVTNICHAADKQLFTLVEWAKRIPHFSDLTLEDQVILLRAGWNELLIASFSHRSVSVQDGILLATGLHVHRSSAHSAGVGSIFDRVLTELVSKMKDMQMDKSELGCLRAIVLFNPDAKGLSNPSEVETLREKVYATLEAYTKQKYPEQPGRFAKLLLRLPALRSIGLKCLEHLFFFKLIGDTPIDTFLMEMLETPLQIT
T2 sequence (P43354 whole entry partner, the tested form may be a part): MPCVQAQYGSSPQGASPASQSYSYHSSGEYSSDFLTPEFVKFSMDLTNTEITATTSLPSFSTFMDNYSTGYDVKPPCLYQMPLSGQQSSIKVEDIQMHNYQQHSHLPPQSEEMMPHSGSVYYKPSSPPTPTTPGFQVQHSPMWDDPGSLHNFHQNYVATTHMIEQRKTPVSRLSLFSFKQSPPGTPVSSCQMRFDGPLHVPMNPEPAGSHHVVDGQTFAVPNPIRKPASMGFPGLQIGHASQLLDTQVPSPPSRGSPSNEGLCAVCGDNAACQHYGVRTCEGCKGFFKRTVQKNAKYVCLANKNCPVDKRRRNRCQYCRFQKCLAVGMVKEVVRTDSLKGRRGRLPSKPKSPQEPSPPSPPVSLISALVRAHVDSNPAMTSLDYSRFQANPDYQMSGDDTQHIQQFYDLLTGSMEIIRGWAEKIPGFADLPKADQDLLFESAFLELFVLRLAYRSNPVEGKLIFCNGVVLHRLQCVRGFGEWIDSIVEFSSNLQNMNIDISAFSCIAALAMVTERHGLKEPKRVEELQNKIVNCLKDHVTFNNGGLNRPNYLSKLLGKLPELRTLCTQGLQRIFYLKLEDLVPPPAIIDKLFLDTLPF
T2 sequence (P04386 1-147 partner limits assumed): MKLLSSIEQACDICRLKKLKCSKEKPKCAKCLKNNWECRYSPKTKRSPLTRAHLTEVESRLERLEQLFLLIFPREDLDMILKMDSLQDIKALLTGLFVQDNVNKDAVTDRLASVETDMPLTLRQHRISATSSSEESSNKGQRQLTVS

[1] = induction level relative to reference XCT0135908 at 2×10^−5 M (=100%)

T1 sequence (P19793 whole entry, the tested form may be a part): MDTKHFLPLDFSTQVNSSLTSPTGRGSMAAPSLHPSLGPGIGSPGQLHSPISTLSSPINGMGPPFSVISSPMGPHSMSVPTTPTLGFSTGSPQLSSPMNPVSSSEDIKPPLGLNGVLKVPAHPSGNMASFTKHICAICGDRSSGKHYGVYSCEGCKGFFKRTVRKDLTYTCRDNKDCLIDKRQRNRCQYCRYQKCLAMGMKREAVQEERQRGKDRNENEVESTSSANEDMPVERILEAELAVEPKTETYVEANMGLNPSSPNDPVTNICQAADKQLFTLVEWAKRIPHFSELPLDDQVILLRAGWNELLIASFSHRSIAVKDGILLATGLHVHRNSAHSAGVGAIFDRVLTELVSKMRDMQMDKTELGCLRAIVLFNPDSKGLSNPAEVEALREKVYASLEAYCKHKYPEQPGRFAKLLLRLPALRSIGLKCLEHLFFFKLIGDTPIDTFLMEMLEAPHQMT
T1 sequence (P43354 whole entry partner, the tested form may be a part): as the sequence (P43354 whole entry partner, the tested form may be a part) above
T1 sequence (P04386 1-147 partner limits assumed): as the sequence (P04386 1-147 partner limits assumed) above

Structure (SMILES)	Emax (NURR-1/RXRα)	EC50 (NURR-1/RXRα)	Emax (NURR-1/RXRγ)	EC50 (NURR-1/RXRγ)	hNurr1_RXRaFL Emax (%) (NURR-1/RXRα; [1])	hNurr1_RXRgFL Emax (%) (NURR-1/RXRγ; [1])
O=C(O)C1CN(c2cccc(-c3cccc(C(F)(F)F)c3)c2)C1 [Example 14, 1-[3-[3-(trifluoromethyl)phenyl]phenyl]azetidine-3-carboxylic acid]	99%	53 nM	106%	114 nM	–	–
O=C(O)C1CN(c2cccc(-n3cc(CC4CCCC4)c4cc(C(F)(F)F)ccc43)c2)C1 [Example 127, 1-[3-[3-(cyclopentylmethyl)-5-(trifluoromethyl)indol-1-yl]phenyl]azetidine-3-carboxylic acid]	117%	4 nM	113%	3 nM	–	–
Cc1cn(-c2cc(Cl)cc(N3CC(C(=O)O)C3)c2)c2ccc(C(F)(F)F)cc12 [Example 42, 1-[3-chloroe-5-[3-methyl-5-(trifluoromethyl)indol-1-yl]phenyl]azetidine-3-carboxylic acid]	81%	5 nM	67%	> 5000 nM	–	–
Cc1cc(-c2cccc(OC(F)(F)F)c2)cc(N2CC(C(=O)O)C2)c1 [Example 1, 1-[3-methyl-5-[3-(trifluoromethoxy)phenyl]phenyl]azetidine-3-carboxylic acid]	122%	41 nM	108%	69 nM	–	–
Cc1cc(-c2cccc(N3CC(C(=O)O)C3)c2)nc(-c2ccccc2)n1 [Example 39, 1-[3-(6-methyl-2-phenylpyrimidin-4-yl)phenyl]azetidine-3-carboxylic acid]	104%	208 nM	110%	472 nM	–	–
Cc1cc(-c2cccc(OC(F)F)c2)cc(N2CC(C(=O)O)C2)c1 [Example 5, 1-[3-[3-(difluoromethoxy)phenyl]-5-methylphenyl]azetidine-3-carboxylic acid]	124%	47 nM	115%	93 nM	–	–
CCC1(CC)C=C(c2cccc(N3CC(C(=O)O)C3)c2)c2ccc(C(F)(F)F)cc2O1 [Example 265]	79%	3 nM	79%	8 nM	–	–
Cc1cc(-c2cccc(C(F)(F)F)c2C)cc(N2CC(C(=O)O)C2)c1 [Example 15, 1-[3-methyl-5-[2-methyl-3-(trifluoromethyl)phenyl]phenyl]azetidine-3-carboxylic acid]	95%	22 nM	85%	43 nM	–	–
Cc1cc(-c2ccc3c(c2)C(C)(C)CCC3(C)C)cc(N2CC(C(=O)O)C2)c1 [Example 9, 1-[3-methyl-5-(1,1,4,4-tetramethyltetralin-6-yl)phenyl]azetidine-3-carboxylic acid]	82%	7 nM	86%	16 nM	–	–
CC(C)Cc1ccc2c(c1)OC(C)(C)CN2c1cccc(N2CC(C(=O)O)C2)c1 [Example 231, tert-butylammonium 1-[3-(7-isobutyl-2,2-dimethyl-3H-1,4-benzoxazin-4yl)phenyl]azetidine-3-carboxylate]	–	318 nM	–	792 nM	58%	66%
CN(C)CCNC(=O)C1CN(c2cccc(N3CC(C)(C)Oc4cc(C(F)(F)F)ccc43)c2)C1 [Example 279, N-3(2-dimethylaminoethyl)-1-[3-[2,2-dimethyl-7-(trifluoromethyl)-3H-1,4-benzoxazin-4-yl]phenyl]azetidine-3-carboxamide]	95%	375 nM	79%	–	–	–
CCc1cc2c(c(-c3cccc(N4CC(C(=O)O)C4)c3)c1)NCC(C)(C)O2 [Example 207, tert-butylammonium 1-[3-(7-ethyl-2,2-dimethyl-3,4-dihydro-1,4-benzoxazin-5-yl)phenyl]azetidine-3-carboxylate]	112%	15 nM	103%	16 nM	–	–
Cc1cn(-c2cccc(N3CC(C(=O)NCCCN(C)C)C3)c2)c2ccc(C(F)(F)F)cc12 [Example 174, N-[3-(dimethylamino)propyl]-1-[3-[3-methyl-5-(trifluoromethyl)indol-1-yl]phenyl]-azetidine-3-carboxamide]	91%	341 nM	95%	620 nM	–	–
CN(C)CCOC(=O)C1CN(c2cccc(N3CC(C)(C)Oc4cc(C(F)(F)F)ccc43)c2)C1 [Example 272, 2-dimethylaminoethyl 1-[3-[2,2-dimethyl-7-(trifluomethyl)-3H-1,4-benzoxazin-4-yl]phenyl]azetidine-3-carboxylate]	117%	4 nM	124%	4 nM	–	–
Cc1cn(-c2cccc(N3CC(C(=O)NC(C)C)C3)c2)c2ccc(C(F)(F)F)cc12 [Example 152, N-isopropyl-1-[3-[3-methyl-5-(trifluoromethyl)indol-1-yl]phenyl]azetidine-3-carboxamide]	116%	10 nM	116%	10 nM	–	–
Cc1cc(N2CC(C(=O)O)C2)cc(-n2cc(C)c3cc(Cl)ccc32)c1 [Example 45]	96%	2 nM	107%	3 nM	–	–
CC(C)(C)c1cccc(-c2cccc(N3CC(C(=O)O)C3)c2)n1 [Example 31, 2-tert-butyl-6-[3-(3-carboxyazetidine-1-yl)phenyl]pyridiuium chlrodie]	62%	153 nM	59%	401 nM	–	–
CC(C)Cc1ccc2c(c1)OC(C)(C)CN2c1cccc(N2CC(C(=O)O)C2)c1 [Example 230, 1-[3-(7-isobutyl-2,2-dimethyl-3H-1,4-benzoxazin-4yl)phenyl]azetidine-3-carboxylic acid]	62%	535 nM	85%	1000 nM	–	–
Cc1cn(-c2cc(C(C)C)cc(N3CC(C(=O)O)C3)c2)c2ccc(C(F)(F)F)cc12 [Example 53, 1-[3-isopropyl-5-[3-methyl-5-(trifluoromethyl)indol-1-yl]phenyl]azetidine-3-carboxylic acid]	83%	141 nM	76%	212 nM	–	–
Cn1cc(-c2cc(Cl)cc(N3CC(C(=O)O)C3)c2)c2ccc(C(F)(F)F)cc21 [Example 29]	78%	–	85%	–	–	–
CCCCNC(=O)C1CN(c2cccc(-n3cc(C)c4cc(C(F)(F)F)ccc43)c2)C1 [Example 169, N-butyl-1-[3-[3-methyl-5-(trifluoromethyl)indol-1-yl]phenyl]azetidine-3-carboxamide]	109%	13 nM	149%	26 nM	–	–

The next lines start with the values.

Emax (NURR-1/RXRα)	EC50 (NURR-1/RXRα)	Emax (NURR-1/RXRγ)	EC50 (NURR-1/RXRγ)	hNurr1_RXRaFL Emax (%) (NURR-1/RXRα; [1])	hNurr1_RXRgFL Emax (%) (NURR-1/RXRγ; [1])	Structure (SMILES)
76%	1400 nM	100%	2240 nM	–	–	Cc1cn(-c2cc(OC(C)C)cc(N3CC(C(=O)O)C3)c2)c2ccc(C(F)(F)F)cc12 [Example 54, 1-[3-isopropoxy-5-[3-methyl-5-(trifloruomethyl)indol-1-yl]phenyl]azetidine-3-carboxylic acid]
104%	19 nM	130%	31 nM	–	–	Cc1cn(-c2cccc(N3CC(C(=O)O)C3)c2)c2ccc(C3CC3)cc12 [Example 46]
97%	159 nM	94%	125 nM	–	–	COCCOc1ccc(C(F)(F)F)cc1-c1cccc(N2CC(C(=O)O)C2)c1 [Example 102, 1-[3-[2-(2-methoxyethoxy)-5-(trifluoromethyl)phenyl]phenyl]azetidine-3-carboxylic acid]
114%	3 nM	104%	13 nM	–	–	Cc1cc(-c2cc(C(F)(F)F)ccc2Cl)cc(N2CC(C(=O)O)C2)c1 [Example 24, 1-[3-[2-chloro-5-(trifluoromethyl)phenyl]-5-methylphenyl]azetidine-3-carboxylic acid]
115%	14 nM	133%	146 nM	–	–	Cc1cn(-c2cccc(N3CC(C(=O)NCC(F)(F)F)C3)c2)c2ccc(C(F)(F)F)cc12 [Example 178, 1-[3-[3-methyl-5-(trifluoromethyl)indol-1-yl]phenyl]-N-(2,2,2-trifluoromethyl)azetidine-3-carboxamide]
101%	13 nM	97%	16 nM	–	–	Cc1cc(-c2cccc(C(C)C)c2)cc(N2CC(C(=O)O)C2)c1 [Example 3, 1-[3-(3-isopropylphenyl)-5-methylphenyl]azetidine-3-carboxylate acid]
45%	> 5000 nM	44%	> 5000 nM	–	–	Cc1nc(C(F)(F)F)nc(-c2cccc(N3CC(C(=O)O)C3)c2)c1C [Example 35, 1-[3-[5,6-dimethyl-2-(trifloruomethyl)pyrrimidin-4-yl]phenyl]azetidine-3-carboxylic acid]
94%	8 nM	94%	15 nM	–	–	O=C(O)C1CN(c2cccc(-c3cc(C(F)(F)F)ccc3OCc3ccsc3)c2)C1 [Example 111, 1-[3-[2-(3-thienylmethoxy)-5-(trifluoromethyl)phenyl]phenyl]azetidine-3-carboxylic acid]
120%	3 nM	114%	6 nM	–	–	Cc1cn(-c2cccc(N3CC(C(=O)NCC(O)CO)C3)c2)c2ccc(C(F)(F)F)cc12 (stereo not drawn) [Example 157, N-(2,3-dihydroxypropyl)-1-[3-[3-methyl-5-(trifluoromethyl)indol-1-yl]phenyl]azetidine-3-carboxamide]

Source: patent US20170066717A1, “NEW PHENYLAZETIDINECARBOXYLATE OR -CARBOXAMIDE COMPOUNDS” (INVENTIVA, priority 2014, published 2017)
